PMC3448056, “2-Benzamido-N-(1H-benzo[d]imidazol-2-yl)thiazole-4-carboxamide derivatives as potent inhibitors of CK1δ/ε” (Amino Acids, 2012)
Values joined by “and” are separate entries in the source; they are usually repeats but may differ in a detail not shown here. Equal values may be shown once.

Columns and labels:
Type in all cases: biochemical
[1] = target: T1, human CK1ε (Homo sapiens, UniProt P49674); test: In vitro kinase assay, CK1ε
T1 construct: purchased Invitrogen, Karlsruhe, Germany
T1 sequence (P49674 whole entry): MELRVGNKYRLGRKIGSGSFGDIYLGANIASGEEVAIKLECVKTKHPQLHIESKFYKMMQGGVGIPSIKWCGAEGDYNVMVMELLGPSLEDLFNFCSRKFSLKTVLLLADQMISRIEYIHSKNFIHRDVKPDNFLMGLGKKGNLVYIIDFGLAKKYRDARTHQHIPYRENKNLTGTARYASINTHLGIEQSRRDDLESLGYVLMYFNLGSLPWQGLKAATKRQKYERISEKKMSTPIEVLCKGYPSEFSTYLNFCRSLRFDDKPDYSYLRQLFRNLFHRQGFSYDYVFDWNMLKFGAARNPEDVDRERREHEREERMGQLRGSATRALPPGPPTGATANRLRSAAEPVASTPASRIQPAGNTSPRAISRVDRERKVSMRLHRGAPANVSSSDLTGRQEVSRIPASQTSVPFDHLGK

[2] = target: T2, CK1δkd (Rattus norvegicus, UniProt Q06486); test: In vitro kinase assay, CK1δ kinase domain; conditions: for activity against CK1δkd (in words, SAR discussion): kinase assays using a CK1 specific substrate
T2 construct: Recombinant CK1δ kinase domain (CK1δkd, NEB, Frankfurt am Main, Germany); purchased NEB, Frankfurt am Main, Germany
T2 sequence (Q06486 9-277 limits assumed): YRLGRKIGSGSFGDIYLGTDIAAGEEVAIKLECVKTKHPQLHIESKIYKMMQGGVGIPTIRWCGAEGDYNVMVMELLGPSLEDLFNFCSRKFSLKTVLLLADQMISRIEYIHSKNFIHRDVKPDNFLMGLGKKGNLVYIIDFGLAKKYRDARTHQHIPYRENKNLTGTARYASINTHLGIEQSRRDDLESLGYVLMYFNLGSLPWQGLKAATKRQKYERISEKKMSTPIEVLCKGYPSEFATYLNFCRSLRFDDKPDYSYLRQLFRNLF

[3] = target: T3, GST-rat CK1δ (Rattus norvegicus, UniProt Q06486); test: In vitro kinase assay, GST-rat CK1δ
T3 construct: made in house; host or cells: bacteria (pGEX-2T)
T3 sequence (Q06486 whole entry): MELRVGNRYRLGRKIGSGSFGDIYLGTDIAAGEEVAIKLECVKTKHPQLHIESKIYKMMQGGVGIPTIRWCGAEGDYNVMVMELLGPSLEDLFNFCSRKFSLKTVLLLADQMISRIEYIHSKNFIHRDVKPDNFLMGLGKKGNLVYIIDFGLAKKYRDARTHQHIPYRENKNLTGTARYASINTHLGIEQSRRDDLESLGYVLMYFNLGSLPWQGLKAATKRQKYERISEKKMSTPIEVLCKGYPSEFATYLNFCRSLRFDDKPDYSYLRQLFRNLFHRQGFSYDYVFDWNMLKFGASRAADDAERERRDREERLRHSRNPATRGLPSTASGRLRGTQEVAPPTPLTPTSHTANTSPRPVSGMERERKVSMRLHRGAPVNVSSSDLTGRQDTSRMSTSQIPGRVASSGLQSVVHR

[4] = target: T4, GST-mouse CK1δTV2 (Mus musculus, UniProt Q9DC28); test: In vitro kinase assay, GST-mouse CK1δTV2; conditions: 0.01 mM ATP, substrate GST-mouse p53^1-64; mean ± SD; read-out: IC50 (μM) GST-CK1δ TV2
T4 construct: made in house; host or cells: bacteria (pGEX-2T)
T4 sequence (Q9DC28 1-409 isoform Q9DC28-2): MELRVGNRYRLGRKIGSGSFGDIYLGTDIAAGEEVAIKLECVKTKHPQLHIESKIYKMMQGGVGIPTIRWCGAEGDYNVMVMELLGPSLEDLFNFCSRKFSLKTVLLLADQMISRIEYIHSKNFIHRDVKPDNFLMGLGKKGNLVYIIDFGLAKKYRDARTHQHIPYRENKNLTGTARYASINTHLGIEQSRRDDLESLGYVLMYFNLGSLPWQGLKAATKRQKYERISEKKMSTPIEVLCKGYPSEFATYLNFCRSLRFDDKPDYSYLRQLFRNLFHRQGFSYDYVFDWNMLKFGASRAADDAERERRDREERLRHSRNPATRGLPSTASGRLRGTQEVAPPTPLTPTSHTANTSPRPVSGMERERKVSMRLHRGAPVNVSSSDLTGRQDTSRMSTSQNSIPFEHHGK
Excerpt: (§1) CK1δTV1 and 2 (transcription variants 1 and 2) were PCR amplified from mouse cDNA (5′-primer TV1 and 2: 5′-[…]-3′, 3′-primer TV1: 5′-[…]-3′, 3′-primer TV2: 5′-[…]-3′) and cloned into pcDNA3.1/V5-His© TOPO® TA cloning vector (Invitrogen, Karlsruhe, Germany) before being subcloned into pGEX-2T expression vector via BamHI to generate plasmids pGEX-2T-mouse CK1δTV1 (FP1170) and pGEX-2T-mouse CK1δTV2 (FP1171).
(§2) Expression and purification of the GST-fusion proteins GST-mouse p53^1–64 (FP267), GST-rat CK1δ (FP449), GST-rat CK1δ^M82F (FP1153), GST-mouse CK1δTV1 (FP1170), and GST-mouse CK1δTV2 (FP1171) was carried out as described elsewhere (Wolff et al. [2005]). Expression of fusion proteins FP1170 and 1171 was either performed at 37°C for 2 h, or at 15°C for 14 h. FP449 and FP1153 were always expressed at 15°C for 14 h.
(§3) In vitro kinase assays were carried out in the presence of various potential inhibitors of CK1δ at an ATP concentration of 0.01 mM and dimethyl sulfoxide (DMSO) solvent control as described previously (Knippschild et al. [1996]). Where indicated higher ATP concentrations (0.05, 0.1, 0.25 and 0.5 mM) were used. The fusion protein GST-mouse p53^1−64 (FP267) was used as substrate. Recombinant CK1δ kinase domain (CK1δkd, NEB, Frankfurt am Main, Germany), GST-rat CK1δ (FP449), GST-rat CK1δ^M82F (FP1153), GST-mouse CK1δTV1, GST-mouse CK1δTV2 and recombinant human CK1ε (Invitrogen, Karlsruhe, Germany) were used as sources of enzyme. Phosphorylated proteins were separated by SDS-PAGE and the protein bands were visualized on dried gels by autoradiography. The phosphorylated protein bands were excised and quantified by Cherenkov counting.

[5] = target: T5, GST-rat CK1δ^M82F (Rattus norvegicus, UniProt Q06486, M82F); test: In vitro kinase assay, gatekeeper mutant; conditions: inhibitor at its determined IC50 concentration (Fig. 7)
T5 construct: made in house; host or cells: bacteria (pGEX-2T)
T5 sequence (Q06486 1-415 M82F): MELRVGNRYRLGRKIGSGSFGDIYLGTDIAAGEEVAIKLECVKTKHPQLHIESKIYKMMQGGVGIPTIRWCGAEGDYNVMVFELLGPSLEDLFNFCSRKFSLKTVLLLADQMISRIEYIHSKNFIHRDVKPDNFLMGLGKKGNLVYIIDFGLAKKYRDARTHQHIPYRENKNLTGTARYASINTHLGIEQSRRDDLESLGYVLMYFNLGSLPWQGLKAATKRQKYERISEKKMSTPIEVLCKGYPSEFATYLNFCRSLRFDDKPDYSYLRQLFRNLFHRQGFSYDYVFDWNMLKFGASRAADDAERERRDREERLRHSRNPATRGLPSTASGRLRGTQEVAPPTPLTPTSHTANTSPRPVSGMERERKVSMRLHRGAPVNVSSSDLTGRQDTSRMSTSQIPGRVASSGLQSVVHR
Experimental: For the expression of wt rat CK1δ and rat CK1δ^M82F as glutathione S-transferase fusion proteins the plasmids pGEX-2T-CK1δ (FP449) (Knippschild et al. [1997]) and pGEX-2T-CK1δ^M82F (FP1153) (Peifer et al. [2009]) were used.
as §2, §3
Previously it has been shown that methionine 82 plays an important role as gatekeeper residue in the docking mode of isoxazoles to the ATP binding pocket since mutation of methionine 82 to phenylalanine blocks binding of this class of CK1δ specific inhibitors (Peifer et al. [2009]) while still binding ATP. Therefore, we now analyzed the effects of exchanging methionine 82 to phenylalanine on the ability of compounds 4, 5 and 6 to inhibit CK1δ activity.

[6] = target: T6, GST-mouse CK1δTV1 (Mus musculus, UniProt Q9DC28); test: In vitro kinase assay, GST-mouse CK1δTV1; conditions: 0.01 mM ATP, substrate GST-mouse p53^1-64; mean ± SD; read-out: IC50 (μM) GST-CK1δ TV1
T6 construct: made in house; host or cells: bacteria (pGEX-2T)
T6 sequence (Q9DC28 whole entry): as the sequence (Q06486 whole entry) above
Excerpt: as §1, §2, §3

[7] = 0.01 mM ATP, substrate GST-mouse p53^1-64, mean ± SD
[8] = symbol, tested range 10–0.005 μM

SMILES | IC50 [2, 7] | activity against CK1δkd (in words, SAR discussion) [2] | IC50 [3, 7] | further results
COC(=O)c1ccc2[nH]c(NC(=O)c3csc(NC(=O)c4ccccc4OC(F)(F)F)n3)nc2c1 [Compound 1, Methyl 2-(2-(2-(trifluoromethoxy)benzamido)-thiazole-4-carboxamido)-1H-benzo[d]imidazole-5-carboxylate] | 0.865 ± 0.14 µM | diminished activity | 1.97 ± 0.85 µM | IC50 [1, 7]: 0.496 ± 0.1 µM
Cn1c(NC(=O)c2csc(NC(=O)c3ccccc3OC(F)(F)F)n2)nc2ccccc21 [Compound 3, N-(1-Methyl-1H-benzo[d]imidazol-2-yl)-2-(2-(trifluoromethoxy)benz-amido)thiazole-4-carboxamide] | – | lost | – | IC50 [2, 8]: > 10 µM; IC50 [3, 8]: > 10 µM
O=C(Nc1nc2ccc(C(F)(F)F)cc2[nH]1)c1csc(NC(=O)c2ccco2)n1 [Compound 7, 2-(Furan-2-carboxamido)-N-(6-(trifluoromethyl)-1H-benzo[d]imidazol-2-yl)thiazole-4-carboxamide] | 0.542 ± 0.05 µM | – | 1.04 ± 0.31 µM | –
O=C(Nc1nc(C(=O)Nc2nc3ccc(C(F)(F)F)cc3[nH]2)cs1)c1ccncc1 [Compound 4, 2-(Isonicotinamido)-N-(6-(trifluoromethyl)-1H-benzo[d]imidazol-2-yl)thiazole-4-carboxamide] | 0.409 ± 0.12 µM | – | 0.326 ± 0.19 µM | IC50 [4]: 0.505 ± 0.04 µM; kinase activity of GST-CK1δ^M82F in comparison with inhibition of GST-wt CK1δ [5]: much more affected; inhibition of CK1ε in initial screen ([1]; inhibitor 10 μM, 10 μM ATP (Fig. 1b)): significant inhibition; inhibition of CK1δkd in initial screen ([2]; inhibitor 10 μM, 10 μM ATP (Fig. 1a)): significant inhibition; mode of inhibition ([2]; inhibitor at IC50 concentration, ATP 0.01-0.5 mM (Fig. 6)): ATP competitive inhibitors; IC50 [6]: 0.18 ± 0.03 µM; GST-wt CK1δ activity in the presence of inhibitor ([3]; inhibitor at its determined IC50 concentration (Fig. 7)): clearly decreased
CS(=O)(=O)c1ccc2[nH]c(NC(=O)c3csc(NC(=O)c4ccccc4OC(F)(F)F)n3)nc2c1 [Compound 2, N-(5-(Methylsulfonyl)-1H-benzo[d]imidazol-2-yl)-2-(2-(trifluoromethoxy)benzamido)thiazole-4-carboxamide] | 1.23 ± 0.41 µM | diminished activity | 5.19 ± 1.14 µM | –

The next lines start with results.

IC50 [2, 7] | activity against CK1δkd (in words, SAR discussion) [2] | IC50 [3, 7] | SMILES | further results
1.12 µM and 0.73 µM | – | 1.19 ± 0.39 µM | O=C(Nc1nc2ccccc2s1)c1csc(NC(=O)c2ccccc2OC(F)(F)F)n1 [Compound 9, 2-(2-Trifluoromethoxy-benzoylamino)-thiazole-4-carboxylic acid benzothiazol-2-ylamide] | –
1.12 ± 0.19 µM | – | 0.935 ± 0.55 µM | O=C(Nc1nc2ccccc2[nH]1)c1csc(NC(=O)c2ccccc2OC(F)(F)F)n1 [Compound 8, N-(1H-Benzo[d]imidazol-2-yl)-2-(2-(trifluoromethoxy)benzamido)thiazole-4-carboxamide] | –
0.647 ± 0.04 µM | kinase activity was even more decreased | 0.991 ± 0.21 µM | O=C(Nc1nc2ccccc2o1)c1csc(NC(=O)c2ccccc2OC(F)(F)F)n1 [Compound 10, N-(Benzo[d]oxazol-2-yl)-2-(2-(trifluoromethoxy)benzamido)thiazole-4-carboxamide] | –
